This note sets out measurements from US20060084599A1, “Compositions, methods and kits relating to notch signaling” (Maine Medical Center, priority 2003, published 2006).

Test [1] concerns NCSC populations. The test can be described thus: Dosage sensitivity of secondary NCSC to BMP2 and sDl1. Type of test: cell-based, murine. The following applies: founders expanded 18 days; BMP2 and sDl1 dose response. On the procedure:
It is well established that quantitative changes in the dosage sensitivity of NCSC populations occur in vitro and in vivo during NCSC self-renewal (Kubu et al., 2002, Dev. Biol. 244:199-214; White et al., 1999, Development 126:4351-4363; White et al., 2001, Neuron 29:57-71). In order to resolve whether it was possible to clonally expand stem cell populations without the loss of qualitative or quantitative differentiation potential, it was evaluated whether NCSC population expansion in either a thrombin or a sJ 1 environment was able to maintain the quantitative dosage sensitivity of the NCSC populations to instructive differentiation factors. NCSC clones were expanded with either thrombin, TRAP, or sJ1 for 18 days, the clones dissociated to a clonal density every 6 days to minimize cell-cell interactions, and the p75^+/P0^− cells identified. The dosage sensitivity of secondary NCSC populations to both BMP2 and sDl1 was evaluated using the clonogenic differentiation assay to quantitate the production of neuron-only clones (BMP2) and glial-only clones (sDl1) after day 18.

Test [2] has as its system CSL1-dependent transcription. The test can be described thus: Dual luciferase reporter assay of CSL1-dependent transcription (Example 2). Type of test: cell-based, murine. The following applies: for CSL1-dependent transcription, level relative to control: thrombin on full-length Jagged1 NIH 3T3 transfectants, sJ1 expression, 10 ng/ml exogenous FGF1. On the procedure:
Insert-less vector control and sJ1 NIH 3T3 cell transfectants (approximately 3×10^4) were plated on fibronectin-coated (10 μg/cm^2) cell culture dishes and the cells were transiently transfected at approximately 50% confluency with 500 ng of a luciferase construct containing four tandem copies of the CBF1 response element (Small et al., 2001, J. Biol. Chem. 276:32022-32030).
Cotransfection with 100 ng of the TK Renilla (Promega) construct was used as an internal control for transfection efficiency using Fugene 6 (Roche), according to the manufacturer's instructions. Cells were treated with or without 10, […] hours after transfection, harvested 48 hours after the transfection and luciferase/renilla activity measured using the Dual Luciferase Reporter Assay System (Promega). Each experiment was performed in triplicate.

Test [3] concerns CBF1-responsive promoter. Description: Dual luciferase assay of CSL-dependent transcription (Example 3). Type of test: cell-based, mouse. Particulars: NIH 3T3 cells and N1IC NIH 3T3 cells expressing the ligand. On the procedure: Dual Luciferase Assay. CSL-dependent transcription was quantitated as previously described (Small et al., 2001, J. Biol. Chem. 276:32022-32030; Small et al., 2003, J. Biol. Chem. 278:16405-16413). Briefly, approximately 5×10^4 cells representing insert-less vector control, sDl1, sJ1, dominant-negative Notch1 (dnN1), dominant-negative Notch2 (dnN2) (Small et al., 2001, J. Biol. Chem. 276:32022-32030), sDl1/dnSrc and sJ1/dnSrc stable NIH 3T3 cell transfectants were plated on 12-well plastic plates (Falcon) coated with fibronectin (10 μg/cm^2). The cells were transiently transfected at 60% confluence with 500 ng of the CBF1-responsive Luciferase construct (Small et al., 2001, J. Biol. Chem. 276:32022-32030) and 100 ng of a Renilla SV40 construct (Promega) which was utilized as an internal control for transfection efficiency. Gene Juice (Novagen) was used as a transfection reagent. Some of the samples also contained 200 ng of a DNA construct encoding the truncated intracellular constitutively active form of Notch1 (N1IC) (Small et al., 2001, J. Biol. Chem. 276:32022-32030). […] Individual assays were performed in triplicate and the Luciferase/Renilla activity was measured using Dual-Luciferase Reporter Assay System (Promega) 48 hrs following the transient transfection.

In test [4] the test system is FGF gene family transcripts. Description: RT-PCR of FGF gene family expression. Type of test: cell-based, murine. Particulars: stable NIH 3T3 cell transfectants expressing the ligand. On the procedure:
Total RNA from vector control, sJ1, caN1 and dnN1 stable transfectants was isolated using Tri Reagent™ (Sigma) according to the manufacturer's protocol. cDNA was obtained from 5 μg total RNA with SuperScript™ (Invitrogen) reverse transcriptase using an oligo dT primer (Invitrogen). The following specific primers were purchased from IDT and used for RT-PCR analysis. Sense primers are indicated by (s); Antisense primers are indicated by (as): […]
PCR amplification was performed for 45 cycles as follows: 40 seconds at 94° C., 40 seconds at 50° C. (for FGF2, FGF3, FGF4 and FGFR3) or at 55° C. (for FGF6, FGF7, FGF8, FGF9, FGF10, FGFR1 and FGFR2), 1 minute at 72° C. For FGF5, RT-PCR analysis was performed as described (Ozawa et al., 1998, J. Biol. Chem. 273: 29262-29271) and all amplified DNA was visualized with ethidium bromide on 1.5% agarose gels.

Test [5] has as its system Src. The test can be described thus: Src pY418 immunoblot. The class given is cell-based, mouse. The following applies: stable NIH 3T3 cell transfectants expressing the ligand. On the procedure: Immunoblot Analysis. Cell lysates from insert-less vector sDl1 and sJ1 NIH 3T3 cell transfectants were prepared in 20 mM Tris HCl, pH 7.5, containing 300 mM sucrose, 60 mM—KCl, 15 mM NaCl, 0.5 mM EDTA, 0.5% (v/v) Triton X-100, 1 mM phenylmethylsulfonyl fluoride, 10 μg/ml leupeptin, 2 μg/ml aprotinin, 0.1% (w/v) deoxycholic acid and 1 mM sodium orthovanadate. Samples of equal protein content were subjected to SDS-PAGE and immunoblot analysis was performed as previously described (Small et al., 2001, J. Biol. Chem. 276:32022-32030) using either a rabbit anti-Src [pY418] phosphospecific antibody (Biosource International), a rabbit anti-total Src antibody (Santa Cruz Biotechnology), a rabbit polyclonal anti-cortactin antibody (a gift from Dr. Xi Zhan, American Red Cross), or an anti-phosphotyrosine antibody (Upstate). Immunoprecipitation of cortactin was performed as previously described (Zhan et al., 1993, J. Biol. Chem. 268:24427-24431).

For the molecule thrombin, in test [1], the “shift in sensitivity of secondary stem cells to instructive differentiation signals” value is listed as “this shift in sensitivity to instructive differentiation signals was not observed”. Also, the “effect on Notch-dependent CSL1 activity” value in test [2] (full-length Jagged1 NIH 3T3 cell transfectants) is “able to reduce the level of Notch-dependent CSL1 activity in a dose-dependent manner”. The “CSL1-dependent transcription, level relative to control” value in test [2] was “approximately 75 % of the control level”.
In the case of “sJ1: Soluble Jagged1, amino acid residues about 1 to 1067 (SEQ ID NO:3) of full-length human Jagged1”, in test [1], the “shift in sensitivity of secondary stem cells to instructive differentiation signals” value is “this shift in sensitivity to instructive differentiation signals was not observed”. Besides, the “transactivation of the CBF1-responsive promoter” value in test [3] is “inhibited the transactivation of the CBF1-responsive promoter”. Besides, in test [2], the “CSL1-dependent transcription, level relative to control” value is given as “approximately 25 % of the control level”. Also, in test [4], the “FGF gene family mRNA expression in transfectants” value was “expression of mRNAs encoding FGF1, FGF3, FGF4, and FGF5”. Further, the “level of active Src” value in test [5] is recorded as “increase in the level of active Src”.

B1: sDl1: soluble non-transmembrane form (extracellular domain) of the Notch ligand Delta1 (protein)
chain: QVWSSGVFELKLQEFVNKKGLLGNRNCCRGGAGPPPCACRTFFRVCLKHYQASVSPEPPCTYGSAVTPVLGVDSFSLPDGGGADSAFSNPIRFPFGFTWPGTFSLIIEALHTDSPDDLATENPERLISRLATQRHLTVGEEWSQDLHSSGRTDLKYSYRFVCDEHYYGEGCSVFCRPRDDAFGHFTCGERGEKVCNPGWKGPYCTEPICLPGCDEQHGFCDKPGECKCRVGWQGRYCDECIRYPGCLHGTCQQPWQCNCQEGWGGLFCNQDLNYCTHHKPCKNGATCTNTGQGSYTCSCRPGYTGATCELGIDECDPSPCKNGGSCTDLENSYSCTCPPGFYGKICELSAMTCADGPCFNGGRCSDSPDGGYSCRCPVGYSGFNCEKKIDYCSSSPCSNGAKCVDLGDAYLCRCQAGFSGRHCDDNVDDCASSPCANGGTCRDGVNDFSCTCPPGYTGRNCSAPVSRCEHAPCHNGATCHERGHRYVCECARGYGGPNCQFLLPELPPGPAVVDLTEKLEGQGGPFPW
modifications: left off: small tags and cut ends
notes: soluble non-transmembrane form (extracellular domain) of the Notch ligand Delta1
In the case of B1, the “transactivation of the CBF1-responsive promoter” value in test [3] is on record as “inhibited the transactivation of the CBF1-responsive promoter”. Besides, the “FGF gene family mRNA expression in transfectants” value in test [4] was “express the FGF3, FGF4 and FGF9 transcripts”. Further, the “level of active Src” value in test [5] is recorded as “increase in the level of active Src”.
